For data set [1], the target named is Nsp3b (SARS-CoV-2 macrodomain) (Severe acute respiratory syndrome coronavirus 2, UniProt P0DTD1). Description: biochemical. The format is binding.
A further data set concerns CHIKV (OPY1). Nature of the data set: microbe, parasite or virus in culture. The format is cell-based. To be noted: Chikungunya virus, Vero C1008, 48 h.
Data set [2] has as its target T1, CHIKV macrodomain (Chikungunya virus, UniProt Q8JUX6). The following applies: cited from earlier work.
In data set [3] the target is T2, Nsp3b (Severe acute respiratory syndrome coronavirus 2, UniProt P0DTD1). The format is biochemical, SARS-CoV-2.
In data set [4] the target is T3, MERS-CoV macrodomain (Middle East respiratory syndrome-related coronavirus, UniProt K9N7C7). The format is biochemical.
Data set [5] deals with Rubella virus (RuV) macrodomain (Rubella virus, UniProt Q86500). The format is binding.
The nature of data set [6]: in vitro. To be noted: African green monkey.
Data set [7] can be described thus: in vitro. The following applies: African green monkey. The source holds these as a separate data set.
For data set [8], the target named is T2, Nsp3b. The format is binding, SARS-CoV-2.
The next data set concerns SARS-CoV-2 B.1. Nature of the data set: microbe, parasite or virus in culture. To be noted: for EC50: Severe acute respiratory syndrome coronavirus 2, VeroE6/TMPRSS2, 48 h. The format is cell-based.
In data set [9] the target is T3, MERS-CoV macrodomain. Nature of the data set: biochemical. The format is binding.
The target of another data set is SARS-CoV macrodomain (Severe acute respiratory syndrome coronavirus, UniProt P0C6X7). Description: biochemical. The format is binding.
Data set [10] has as its target T1, CHIKV macrodomain. The format is binding.
The target of another data set is hMacroD2 (Homo sapiens, UniProt A1Z1Q3). The format is binding.
For data set [11], the system named is Nsp3b. To be noted: cited from earlier work.

Usually Kd stands for a measure of binding affinity in units of concentration. A word on the EC50: it is the concentration giving half of the maximal effect. As usually defined, the pKa is the negative logarithm of the acid dissociation constant. The term IC50 denotes the concentration needed to halve the response being measured.

Where “and” joins values, the source holds several entries; their conditions need not be identical. Identical values can stand only once. Entries after “also recorded” stand apart in the source; their conditions may differ. A value given as a limit tells only on which side of the number the result lay.

T1 sequence (Q8JUX6 1334-1493 limits assumed): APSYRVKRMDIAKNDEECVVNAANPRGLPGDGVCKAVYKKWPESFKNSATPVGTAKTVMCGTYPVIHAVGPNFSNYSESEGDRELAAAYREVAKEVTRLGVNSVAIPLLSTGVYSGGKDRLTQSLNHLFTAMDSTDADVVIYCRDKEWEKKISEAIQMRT
T3 sequence (K9N7C7 1110-1276 limits assumed): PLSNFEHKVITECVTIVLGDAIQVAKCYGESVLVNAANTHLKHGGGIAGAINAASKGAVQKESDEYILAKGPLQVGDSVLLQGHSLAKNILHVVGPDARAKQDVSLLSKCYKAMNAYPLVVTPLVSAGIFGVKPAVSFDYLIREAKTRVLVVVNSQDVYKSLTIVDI
Chain of hMacroD2 (A1Z1Q3 7-243): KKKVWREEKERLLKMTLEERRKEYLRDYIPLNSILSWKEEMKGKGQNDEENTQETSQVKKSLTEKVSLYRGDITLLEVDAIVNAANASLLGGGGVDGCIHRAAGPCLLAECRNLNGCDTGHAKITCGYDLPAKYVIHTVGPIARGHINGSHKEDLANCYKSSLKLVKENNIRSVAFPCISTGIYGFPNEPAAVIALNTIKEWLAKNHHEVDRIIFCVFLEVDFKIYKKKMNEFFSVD
Chain of Rubella virus (RuV) macrodomain (Q86500 806-985 limits assumed): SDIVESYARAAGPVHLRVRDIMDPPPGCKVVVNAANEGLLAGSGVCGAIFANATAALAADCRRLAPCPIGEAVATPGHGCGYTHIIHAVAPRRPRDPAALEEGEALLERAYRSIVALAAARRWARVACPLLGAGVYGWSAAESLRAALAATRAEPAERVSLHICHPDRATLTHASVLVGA

For `Nc1ncnc2c1ncn2[C@@H]1O[C@H](COP(=O)(O)OP(=O)(O)O)[C@@H](O)[C@H]1O` [ADP], in data set [1], the Kd is above 10000 µM.
In the case of `Nc1ncnc2c1ncn2[C@@H]1O[C@H](COP(=O)(O)O)[C@@H](O)[C@H]1O` [AMP], the Kd in data set [1] fell in the range of 1900 to 2500 µM.
Still for that read-out and setting: the result for `Nc1ncnc2c1ncn2[C@@H]1O[C@H](COP(=O)(O)OP(=O)(O)NP(=O)(O)O)[C@@H](O)[C@H]1O` [APPNHP] reads 1900 to 2500 µM.
On to `Nc1ncnc2c1ncn2[C@@H]1O[C@H](COP(=O)(O)OP(=O)(O)OP(=O)(O)O)[C@@H](O)[C@H]1O` [ATP], for which the Kd in data set [1] was in the range of 1900 to 2500 µM.
Regarding `NC(=O)c1nc(F)c[nH]c1=O` [Favipiravir, reference compound], in the data set with CHIKV (OPY1), the EC50 is 11.3 µM.
For `N#C[C@@]1(c2ccc3c(N)ncnn23)O[C@H](CO)[C@@H](O)[C@H]1O` [GS‐441524], the “interaction with CHIKV macrodomain” value at CHIKV macrodomain [2] is on record as “no significant interaction; also recorded: does not bind detectably”. For the same molecule, at Nsp3b [3], the “reduction of the k value versus free macrodomain” value amounted to 33%.
The molecule `N#C[C@@]1(c2ccc3c(N)ncnn23)O[C@H](COP(=O)(O)O)[C@@H](O)[C@H]1O` [RMP] registered a Kd in [1] of around 10 µM.
For the molecule `N#C[C@@]1(c2ccc3c(N)ncnn23)O[C@H](COS(N)(=O)=O)[C@@H](O)[C@H]1O` [compound 3], the “reduction of the k value versus free macrodomain” value on MERS-CoV macrodomain [4] was 16% and ≈ 16%; on Nsp3b [3], 47%. This molecule gave a pKa in the data set “physchem” of 9.37 ± 0.02. Moreover, the EC50 in the data set on CHIKV (OPY1) was 21.8 µM; in the data set with SARS-CoV-2 B.1, above 40 µM. Moreover, the “interaction by ITC” value in data set [5] is listed as “no interaction was observed”; on CHIKV macrodomain [10], “no interaction was observed”; on hMacroD2 it was “no interaction was observed; also recorded: no binding was observed”. The CC50 in “in vitro [6]” and in “in vitro [7]” was above 40 µM throughout. Further, the ΔG is −8.28 kcal mol^–1 on Nsp3b [8], −5.43 kcal mol^–1 on MERS-CoV macrodomain [9] and −7.52 kcal mol^–1 at SARS-CoV macrodomain. The ΔH at Nsp3b [8] is −12.00 ± 0.07 and −12.00 kcal mol^–1 and −12.00 and −12.0 ± 0.07 kcal mol^–1; at SARS-CoV macrodomain it was −12.5 ± 0.3 kcal mol^–1. Further, on Nsp3b [8], the “ΔH compared to GS-441524” value was “–6.75 kcal mol^−1”. Moreover, the “−TΔS” value at Nsp3b [8] worked out at 3.71 kcal mol^–1; at SARS-CoV macrodomain it was 4.96 kcal mol^–1. Besides, the “inhibition of SARS-CoV-2” value in the data set with SARS-CoV-2 B.1 was “no measurable inhibition”. Also, the dissociation constant Kd on MERS-CoV macrodomain [9] is 104 ± 13 µM; on SARS-CoV macrodomain (K D), 3 µM and 3.08 µM.
`CCC(CC)COC(=O)[C@H](C)N[P@](=O)(OC[C@H]1O[C@@](C#N)(c2ccc3c(N)ncnn23)[C@H](O)[C@@H]1O)Oc1ccccc1` [remdesivir, reference compound] came in with an EC50 with SARS-CoV-2 B.1 of 5.48 µM.
For ADP‐ribose [ADPr, reference compound], the “reduction of the k value versus free macrodomain” value on MERS-CoV macrodomain [4] was 32% and ≈ 32%.
Consider α‐azido‐ADPr, for which the IC50 in the data set on Nsp3b [11] is 0.49 µM.
Turning to β‐O‐methyl‐ADPr, the IC50 in the data set with Nsp3b [11] was 127 µM.

The values are drawn from publication PMC12666239 (Chembiochem, 2025).
